In patent publication US20260283950A1, “TRI-AZOLE ANTIFUNGAL COMPOSITIONS” (priority 2023, published 2026):

What was measured:
[1] = Preparation of solutions in semifluorinated alkanes, appearance of the composition; format: physicochemical
Method: 14 mg efinaconazole (purity >99%) is weighed in a 5-ml glass vial; 2 ml F6H8 (Novaliq, purity >99%) is added into the vial by using a pipette, closed with aluminium crimp cap and shaken for 4 hours at 280 mpm, at RT.
20 mg efinaconazole (purity >99%) is weighed in a 5-ml glass vial; the needed volume of the cosolvent is added into the vial by using a pipette; the vial is shaken by hand gentle; the needed volume of F6H8 (Novaliq, purity >99%) is added by using a pipette, closed with aluminium crimp cap and shaken for 4 hours at 280 mpm, at RT.
Following the procedure described in the Examples 1 and 2, the following compositions were prepared (Table 1):
20 mg terbinafine (free base; purity >98%) is weighed in a 5-ml glass vial; 2 ml F6H8 (Novaliq, purity >99%) is added into the vial by using a pipette, closed with aluminium crimp cap and shaken overnight at 280 mpm, at RT.
Following the aforementioned procedure the following compositions were prepared (Table 6): […]

T. interdigitale = test: In vitro nail penetration/inhibition model (Bovine Hoof Sheets soaked in product, zone of inhibition); format: cell-based; conditions: BHS soaked 24 hours in product, incubation at 28° C. 5 days
Method: Three test products containing 0.1% to 10% efinaconazole were tested in vitro for their capabilities to inhibit growth of a representative dermatophyte (T. interdigitale) that is known to cause onychomycosis and tinea pedis in humans: • (a) 0.1% efinaconazole, dissolved in a mixture of F6H8 and 2-propanol (10:1 v/v %), non-aqueous (8-9), • (b) 1.0% efinaconazole, dissolved in a mixture of F6H8 and 2-propanol (9:1 v/v %), non-aqueous (4-7), • (c) 10% efinaconazole, aqueous commercial product (“Jublia”; Bausch Health, Bridgewater, USA) (10-11). As reference products, DMSO was utilized as negative control (1), terbinafine (100 μg/ml in DMSO) as positive control (2) and F6H8 as vehicle control (3). […] Bovine Hoof Sheets (BHS; 400 μm thickness, 16 mm diameter), an established in vitro surrogate for human nails in transungual permeation studies, were soaked in excess in the three test products and the three reference products for 24 hours. Afterwards the BHS were taken from the soaking baths and remaining residues of the test and reference products were thoroughly removed. Then, BHS were transferred and placed onto freshly plated T. interdigitale culture plates. […] Experimental details and results are depicted in Table 2 below: […]

C=C1CCN([C@H](C)[C@](O)(Cn2cncn2)c2ccc(F)cc2F)CC1 [Efinaconazole, efinaconazole]
Appearance ([1]; 7 mg/mL efinaconazole in F6H8, no cosolvent): clear solution | Appearance ([1]; 10 mg/mL efinaconazole, F6H8 (90 vol %), 2-propanol (10 vol %)): clear solution | Appearance ([1]; 15 mg/mL efinaconazole, F4H5 (90 vol %), 2-propanol (10 vol %)): clear solution | Appearance ([1]; 15 mg/mL efinaconazole, F4H10 (90 vol %), 2-propanol (10 vol %)): clear solution | Appearance ([1]; 15 mg/mL efinaconazole, F6H8 (85 vol %), 2-propanol (10 vol %), 1-Methyl-2-pyrrolidon (5 vol %)): clear solution | Appearance ([1]; 15 mg/mL efinaconazole, F6H8 (85 vol %), 2-propanol (10 vol %), Ethyl acetate (5 vol %)): clear solution | Appearance ([1]; 15 mg/mL efinaconazole, F6H8 (85 vol %), 2-propanol (10 vol %), N,N-Dimethyl acetamide (5 vol %)): clear solution | Appearance ([1]; 15 mg/mL efinaconazole, F6H8 (85 vol %), 2-propanol (10 vol %), N,N-Dimethyl formamide (5 vol %)): clear solution | Appearance ([1]; 25 mg/mL efinaconazole, F6H8 (75 vol %), 2-propanol (25 vol %)): clear solution

CN(C/C=C/C#CC(C)(C)C)Cc1cccc2ccccc12 [terbinafine]
Appearance ([1]; 1 mg/mL terbinafine in F4H5, no cosolvent): clear solution | Appearance ([1]; 1 mg/mL terbinafine in F6H8, no cosolvent): clear solution | Appearance ([1]; 5 mg/mL terbinafine in F4H5, no cosolvent): clear solution | Appearance ([1]; 5 mg/mL terbinafine in F6H8, no cosolvent): clear solution | Appearance ([1]; 10 mg/mL terbinafine in F6H8, no cosolvent): clear solution | Appearance ([1]; 10 mg/mL terbinafine, F4H5, ethanol (10 vol %)): clear solution | Appearance ([1]; 10 mg/ml terbinafine, F6H8 (90 vol %), 2-propanol (10 vol %)): clear solution | Appearance ([1]; 15 mg/mL terbinafine in F6H8, no cosolvent): clear solution | Appearance ([1]; 20 mg/mL terbinafine, F6H8 (90 vol %), ethanol (10 vol %)): clear solution | Appearance ([1]; 20 mg/ml terbinafine, F6H8 (90 vol %), 2-propanol (10 vol %)): clear solution | Results (inhibition zone, in words) (T. interdigitale): nearly complete inhibition | zone of inhibition at 100 µg/mL (T. interdigitale; Trichophyton interdigitale, 120 h, read-out: zones of inhibition): 56 to 58 mm
